Test results taken from patent US20120065084A1, “METHODS AND TOOLS FOR PREDICTING THE EFFICIENCY OF ANTHRACYCLINES IN CANCER” (UNIVERSITE LIBRE DE BRUXELLES, priority 2010, published 2012).

System: primary breast tumor
Experiment: neoadjuvant prospective TOP trial: pathological complete response to anthracyclines (epirubicin) monotherapy
Format: in vivo, human
Method: One hundred and forty-nine patients were included in the prospective TOP trial. Out of these patients, 89 received 4 cycles of anthracyclines every 3 weeks, 59 patients received 6 cycles of anthracyclines administered every 2 weeks (dose-dense scheme) and one was not treated according to the protocol due to ineligibility.
The neoadjuvant prospective “TOP” (Trial of Principle) trial was conducted at different European hospitals and coordinated by the Institut Jules Bordet. This study is registered on the clinical trials site of the US National Cancer Institute website http://clinicaltrials.gov/ct2/show/NCT00162812?term=NCT00162812&rank=1. One hundred and forty-nine patients have been included in this trial. Anthracyclines (Epirubicin) monotherapy (100 mg/m2) was given as neo-adjuvant chemotherapy: every 3 weeks×4 cycles for early BC or every 2 weeks×6 cycles with Neulasta® 6 mg on day 2 for patients with inflammatory or locally advanced breast cancer. At completion of chemotherapy, every patient underwent surgery with axillary node sampling. After surgery, adjuvant docetaxel (100 mg/m2×4 cycles) and loco-regional irradiation were administered using standard criteria. This study was primarily designed for the identification of biomarkers of response to anthracyclines (epirubicin).
All patients underwent pretreatment core biopsies of the primary breast tumor before starting neo-adjuvant chemotherapy using a 14G needle. Two biopsies were embedded in OCT (Sakura), frozen in liquid nitrogen within 5 minutes and transferred to a −80° C. freezer. Two biopsies were fixed in formalin and embedded in paraffin. Both fixed and frozen samples were retrieved and stored at the Institut Jules Bordet in Brussels, where the TOP2A evaluations were carried out. Pathologic response was determined by microscopic examination of the excised tumor and nodes after completion of chemotherapy. Pathological complete response (pCR) was defined by the absence of residual invasive breast carcinoma (macro and microscopic) in the breast and in the axillary nodes. Persistence of in-situ carcinoma without invasive component was considered pCR.

SMILES: COc1cccc2c1C(=O)c1c(O)c3c(c(O)c1C2=O)C[C@@](O)(C(=O)CO)C[C@@H]3O[C@H]1C[C@H](N)[C@@H](O)[C@H](C)O1 [anthracyclines, Epirubicin]
- pathological complete response (pCR) rate (3-weekly scheme (every 3 weeks x 4 cycles)): 14%
- proportion of patients who presented a pCR (HER2-negative patients (FISH)): 10%
- proportion of patients who presented a pCR (HER2-positive patients (FISH)): 23%
- pathological complete response (pCR) rate (all patients of the TOP trial, neo-adjuvant epirubicin monotherapy 100 mg/m2): 15%
- pathological complete response (pCR) rate (dose-dense scheme (every 2 weeks x 6 cycles)): 16%
- patients who responded to the anthracyclines therapy (pCR) (patients whose tumors had no TOP2A amplification (FISH)): 9%
- patients who responded to the anthracyclines therapy (pCR) (patients with TOP2A amplified tumors (FISH)): 55%
